“And” between values parts separate entries of the source, which are not always exact repeats. Equal entries are not always repeated.
Test system: Swiss mice, Sarcoma 180 sc, mean tumor weight T/C
Assay: NCI In Vivo Anticancer Drug Screen. Data for tumor model Sarcoma 180 (subcutaneous) in Swiss mice
Details: endpoint: mean tumor weight, higher = larger tumour
Summary of the method: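 Tumor-bearing mice, transplantable tumor; readout survival or tumor size; result = T/C, treated vs vehicle control.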

[1] = dose: 37.5 mg/kg/injection, schedule: Q#A X014 (ip), vehicle: methylcellulose (MC)
[2] = dose: 62.0 mg/kg/injection, schedule: Q01DX007 (ip), vehicle: carboxymethylcellulose (CMC)
[3] = dose: 125.0 mg/kg/injection, schedule: Q01DX007 (ip), vehicle: carboxymethylcellulose (CMC)

`O=[N+]([O-])c1ccc(C=Nc2ccc3c(c2)C(Br)c2ccccc2-3)cc1` (centres undefined) was tested, and the T/C (dose: 55.0 mg/kg/injection, schedule: Q#A X014 (ip), vehicle: saline) was 56 % of control, the T/C (dose: 83.0 mg/kg/injection, schedule: Q#A X014 (ip), vehicle: saline) was 30 % of control and 37 % of control and the T/C (dose: 110.0 mg/kg/injection, schedule: Q01DX007 (ip), vehicle: saline) was 88 % of control. The T/C (dose: 125.0 mg/kg/injection, schedule: Q#A X014 (ip), vehicle: saline) was 28 % of control and 37 % of control, the T/C (dose: 166.0 mg/kg/injection, schedule: Q01DX007 (ip), vehicle: saline) was 85 % of control and the T/C (dose: 187.5 mg/kg/injection, schedule: Q#A X014 (ip), vehicle: saline) was 18 % of control. For the same molecule, the T/C (dose: 250.0 mg/kg/injection, schedule: Q01DX007 (ip), vehicle: saline) was 94 % of control and the T/C (dose: 375.0 mg/kg/injection, schedule: Q01DX007 (ip), vehicle: saline) was 61 % of control.
`O=C1CCCCC1C(=O)C(F)(F)F` (centres undefined) was tested, and the T/C (dose: 27.75 mg/kg/injection, schedule: Q#A X014 (ip), vehicle: methylcellulose (MC)) was 64 % of control, the T/C (dose: 27.75 mg/kg/injection, schedule: Q#A X014 (ip), vehicle: saline) was 64 % of control and the T/C (dose: 41.65 mg/kg/injection, schedule: Q#A X014 (ip), vehicle: methylcellulose (MC)) was 79 % of control. For the same molecule, the T/C (dose: 41.65 mg/kg/injection, schedule: Q#A X014 (ip), vehicle: saline) was 81 % of control, the T/C (dose: 55.0 mg/kg/injection, schedule: Q01DX007 (ip), vehicle: saline) was 61 % of control and the T/C (dose: 62.5 mg/kg/injection, schedule: Q#A X014 (ip), vehicle: methylcellulose (MC)) was 34 % of control. For the same molecule, the T/C (dose: 62.5 mg/kg/injection, schedule: Q#A X014 (ip), vehicle: saline) was 28 % of control, the T/C (dose: 83.0 mg/kg/injection, schedule: Q01DX007 (ip), vehicle: saline) was 44 % of control and the T/C (dose: 93.75 mg/kg/injection, schedule: Q#A X014 (ip), vehicle: methylcellulose (MC)) was 35 % of control and 52 % of control. For the same molecule, the T/C (dose: 93.75 mg/kg/injection, schedule: Q#A X014 (ip), vehicle: saline) was 37 % of control, the T/C (dose: 110.0 mg/kg/injection, schedule: Q02DX004 (ip), vehicle: saline) was 40 % of control and the T/C (dose: 125.0 mg/kg/injection, schedule: Q01DX007 (ip), vehicle: saline) was 62 % of control. The T/C (dose: 165.0 mg/kg/injection, schedule: Q03DX003 (ip), vehicle: saline) was 63 % of control, the T/C (dose: 166.0 mg/kg/injection, schedule: Q02DX004 (ip), vehicle: saline) was 97 % of control and the T/C (dose: 187.0 mg/kg/injection, schedule: Q01DX007 (ip), vehicle: saline) was 47 % of control. For the same molecule, the T/C (dose: 250.0 mg/kg/injection, schedule: Q02DX004 (ip), vehicle: saline) was 82 % of control, the T/C (dose: 352.0 mg/kg/injection, schedule: Q03DX003 (ip), vehicle: carboxymethylcellulose (CMC)) was 83 % of control and the T/C (dose: 561.0 mg/kg/injection, schedule: Q03DX003 (ip), vehicle: saline) was 53 % of control.
`Cc1nnc2ncnc(N)c2n1` was tested, and the T/C (dose: 50.0 mg/kg/injection, schedule: Q01DX007 (ip), vehicle: carboxymethylcellulose (CMC)) was 106 % of control and the T/C (dose: 75.0 mg/kg/injection, schedule: Q01DX007 (ip), vehicle: carboxymethylcellulose (CMC)) was 105 % of control.
`OCC1OC(n2cnc3c(=S)nc[nH]c32)C(O)C1O` (centres undefined) was tested, and the T/C (dose: 10.7 mg/kg/injection, schedule: Q01DX007 (ip), vehicle: carboxymethylcellulose (CMC)) was 51 % of control, the T/C (dose: 17.04 mg/kg/injection, schedule: Q01DX007 (ip), vehicle: carboxymethylcellulose (CMC)) was 61 % of control and the T/C (dose: 20.0 mg/kg/injection, schedule: Q#A X014 (ip), vehicle: methylcellulose (MC)) was 63 % of control. The T/C (dose: 21.3 mg/kg/injection, schedule: Q01DX007 (ip), vehicle: carboxymethylcellulose (CMC)) was 40 % of control and 64 % of control, the T/C (dose: 28.4 mg/kg/injection, schedule: Q01DX007 (ip), vehicle: carboxymethylcellulose (CMC)) was 48 % of control and the T/C [1] was 56 % of control. The T/C (dose: 42.6 mg/kg/injection, schedule: Q01DX007 (ip), vehicle: carboxymethylcellulose (CMC)) was 42 % of control and 46 % of control, the T/C [2] was 44 % of control and the T/C (dose: 75.0 mg/kg/injection, schedule: Q#A X014 (ip), vehicle: methylcellulose (MC)) was 22 % of control. For the same molecule, the T/C (dose: 85.2 mg/kg/injection, schedule: Q01DX007 (ip), vehicle: carboxymethylcellulose (CMC)) was 41 % of control and 44 % of control, the T/C (dose: 100.0 mg/kg/injection, schedule: Q#A X014 (ip), vehicle: methylcellulose (MC)) was 20 % of control and 24 % of control and the T/C [3] was 59 % of control. For the same molecule, the T/C (dose: 250.0 mg/kg/injection, schedule: Q01DX007 (ip), vehicle: carboxymethylcellulose (CMC)) was 25 % of control, the T/C (dose: 300.0 mg/kg/injection, schedule: Q01DX007 (ip), vehicle: carboxymethylcellulose (CMC)) was 21 % of control and the T/C (dose: 400.0 mg/kg/injection, schedule: Q01DX007 (ip), vehicle: carboxymethylcellulose (CMC)) was 19 % of control. The T/C (dose: 450.0 mg/kg/injection, schedule: Q01DX007 (ip), vehicle: carboxymethylcellulose (CMC)) was 11 % of control.
`S=c1nc[nH]c2nc[nH]c12` was tested, and the T/C (dose: 3.25 mg/kg/injection, schedule: Q#A X014 (ip), vehicle: carboxymethylcellulose (CMC)) was 62 % of control, the T/C (dose: 3.62 mg/kg/injection, schedule: Q#A X014 (ip), vehicle: carboxymethylcellulose (CMC)) was 83 % of control and the T/C (dose: 6.5 mg/kg/injection, schedule: Q#A X014 (ip), vehicle: carboxymethylcellulose (CMC)) was 61 % of control. For the same molecule, the T/C (dose: 7.25 mg/kg/injection, schedule: Q#A X014 (ip), vehicle: carboxymethylcellulose (CMC)) was 56 % of control, the T/C (dose: 7.5 mg/kg/injection, schedule: Q01DX007 (ip), vehicle: other) was 102 % of control and the T/C (dose: 10.4 mg/kg/injection, schedule: Q01DX007 (ip), vehicle: carboxymethylcellulose (CMC)) was 51 % of control. The T/C (dose: 13.0 mg/kg/injection, schedule: Q01DX007 (ip), vehicle: carboxymethylcellulose (CMC)) was 66 % of control, the T/C (dose: 13.0 mg/kg/injection, schedule: Q#A X014 (ip), vehicle: carboxymethylcellulose (CMC)) was 28 % of control and the T/C (dose: 14.5 mg/kg/injection, schedule: Q01DX007 (ip), vehicle: carboxymethylcellulose (CMC)) was 73 % of control and 83 % of control. For the same molecule, the T/C (dose: 14.5 mg/kg/injection, schedule: Q#A X014 (ip), vehicle: carboxymethylcellulose (CMC)) was 48 % of control, the T/C (dose: 15.0 mg/kg/injection, schedule: Q01DX007 (ip), vehicle: other) was 101 % of control and the T/C (dose: 15.0 mg/kg/injection, schedule: Q#A X014 (ip), vehicle: methylcellulose (MC)) was 60 % of control. For the same molecule, the T/C (dose: 17.3 mg/kg/injection, schedule: Q01DX007 (ip), vehicle: carboxymethylcellulose (CMC)) was 51 % of control, the T/C (dose: 19.0 mg/kg/injection, schedule: Q01DX007 (ip), vehicle: carboxymethylcellulose (CMC)) was 72 % of control and the T/C (dose: 23.2 mg/kg/injection, schedule: Q01DX007 (ip), vehicle: carboxymethylcellulose (CMC)) was 49 % of control. For the same molecule, the T/C (dose: 25.0 mg/kg/injection, schedule: Q#A X014 (ip), vehicle: methylcellulose (MC)) was 55 % of control, the T/C (dose: 26.0 mg/kg/injection, schedule: Q01DX007 (ip), vehicle: carboxymethylcellulose (CMC)) was 36 % of control and the T/C (dose: 26.0 mg/kg/injection, schedule: Q#A X014 (ip), vehicle: carboxymethylcellulose (CMC)) was 32 % of control. The T/C (dose: 29.0 mg/kg/injection, schedule: Q#A X014 (ip), vehicle: carboxymethylcellulose (CMC)) was 20 % of control, the T/C (dose: 30.0 mg/kg/injection, schedule: Q01DX007 (ip), vehicle: other) was 78 % of control and the T/C [1] was 34 % of control. For the same molecule, the T/C (dose: 38.6 mg/kg/injection, schedule: Q01DX007 (ip), vehicle: carboxymethylcellulose (CMC)) was 36 % of control, the T/C (dose: 43.5 mg/kg/injection, schedule: Q01DX007 (ip), vehicle: carboxymethylcellulose (CMC)) was 27 % of control and 47 % of control and the T/C (dose: 44.0 mg/kg/injection, schedule: Q01DX007 (ip), vehicle: carboxymethylcellulose (CMC)) was 49 % of control. For the same molecule, the T/C (dose: 50.0 mg/kg/injection, schedule: Q#A X014 (ip), vehicle: methylcellulose (MC)) was 14 % of control, the T/C (dose: 58.0 mg/kg/injection, schedule: Q01DX007 (ip), vehicle: carboxymethylcellulose (CMC)) was 14 % of control and 21 % of control and 28 % of control and the T/C (dose: 60.0 mg/kg/injection, schedule: Q01DX007 (ip), vehicle: other) was 33 % of control and 47 % of control. The T/C (dose: 66.0 mg/kg/injection, schedule: Q01DX007 (ip), vehicle: carboxymethylcellulose (CMC)) was 34 % of control and the T/C (dose: 100.0 mg/kg/injection, schedule: Q01DX007 (ip), vehicle: carboxymethylcellulose (CMC)) was 24 % of control.
In the case of `CN(N=Nc1n[nH]nc1C(N)=O)c1ccccc1`, the T/C (dose: 31.0 mg/kg/injection, schedule: Q01DX007 (ip), vehicle: carboxymethylcellulose (CMC)) is reported as 65 % of control, the T/C [2] is reported as 73 % of control and the T/C [3] is reported as 70 % of control.
`CN1CCCC1c1cccnc1` (centres undefined) was tested, and the T/C (dose: 0.25 mg/kg/injection, schedule: Q01DX007 (ip), vehicle: carboxymethylcellulose (CMC)) was 76 % of control, the T/C (dose: 0.5 mg/kg/injection, schedule: Q01DX007 (ip), vehicle: carboxymethylcellulose (CMC)) was 105 % of control and the T/C (dose: 1.0 mg/kg/injection, schedule: Q01DX007 (ip), vehicle: carboxymethylcellulose (CMC)) was 66 % of control.

From PubChem BioAssay AID342 (DTP/NCI, 2004)
